Assay results: paper PMC4887995, “Small molecule dual-inhibitors of TRPV4 and TRPA1 for attenuation of inflammation and pain” (Scientific Reports, 2016)
“Also recorded” adds a separate entry of the source.

Tests used:
TRPV4 = TRPV4 (Rattus norvegicus, UniProt Q9ERZ8); experiment: Patch-clamp recording of TRPV4-mediated currents in TRPV4-GFP+ N2a cells; assay type: cell-based; design: expressed in transfected cells; host or cells: N2a (mouse neuroblastoma) cells; conditions: 5 μM, 5 min pre-incubation, GSK101 5 nM, current densities at −100mV/+100 mV
Chain of TRPV4 (Q9ERZ8 whole entry): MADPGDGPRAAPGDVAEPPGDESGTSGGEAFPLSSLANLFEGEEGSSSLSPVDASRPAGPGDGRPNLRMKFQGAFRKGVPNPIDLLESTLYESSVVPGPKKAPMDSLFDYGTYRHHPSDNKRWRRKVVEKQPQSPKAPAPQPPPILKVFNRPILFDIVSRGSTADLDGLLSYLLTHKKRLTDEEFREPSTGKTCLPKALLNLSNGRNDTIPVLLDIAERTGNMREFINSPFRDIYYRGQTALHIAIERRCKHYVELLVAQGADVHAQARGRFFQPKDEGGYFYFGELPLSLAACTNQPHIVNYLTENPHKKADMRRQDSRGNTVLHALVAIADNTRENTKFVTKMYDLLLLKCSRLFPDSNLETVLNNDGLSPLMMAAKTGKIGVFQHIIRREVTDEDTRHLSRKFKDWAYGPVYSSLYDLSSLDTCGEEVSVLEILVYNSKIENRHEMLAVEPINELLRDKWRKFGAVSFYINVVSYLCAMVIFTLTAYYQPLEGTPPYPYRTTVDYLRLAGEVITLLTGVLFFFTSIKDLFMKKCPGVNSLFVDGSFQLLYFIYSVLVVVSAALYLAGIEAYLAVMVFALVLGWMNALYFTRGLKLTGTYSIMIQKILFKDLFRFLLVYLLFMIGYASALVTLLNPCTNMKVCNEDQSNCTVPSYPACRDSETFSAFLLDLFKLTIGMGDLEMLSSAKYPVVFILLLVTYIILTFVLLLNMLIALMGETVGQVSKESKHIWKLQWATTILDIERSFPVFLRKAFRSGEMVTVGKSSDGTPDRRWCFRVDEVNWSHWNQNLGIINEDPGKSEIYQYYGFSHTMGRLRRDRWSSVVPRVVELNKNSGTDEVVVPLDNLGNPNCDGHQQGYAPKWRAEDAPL
Protocol: Figure 3 TRPV4 channel inhibition by compounds 16-8 and 16-19 – patch-clamp e-phys. (A) Current-voltage relationship of TRPV4-mediated currents after activation with 5 nM GSK101. Recordings were performed in TRPV4-GFP+ N2a cells. The representative traces represent an average of ≈12 sweeps. In all experiments, cells were pre-incubated with the respective compound (5 μM) for 5 minutes.
Heterologously transfected N2a cells were subjected to patch clamp electrophysiological recordings. Briefly, 24 h after transfection cells were prewashed with extracellular fluid (ECF) which contained (in mM) 1 MgCl2, 10 Glucose, 10 HEPES, 145 NaCl and 2 CaCl2 (pH 7.4, 310mOsM). Cells were then incubated with or without TRPV4 inhibitors in ECF for 5 min before whole cell recording. Cover slips were transferred to a recording chamber mounted on the stage of a Leica inverted microscope that was equipped with fluorescent filters. Transfected cells were identified before patching by their green florescent color. Cells were patched with a 2.5–3.0 MΩ glass electrode pulled from borosilicate glass capillaries using pipette puller (Sutter instruments). […] Whole cell currents were recorded using pclamp 9.2 software and Axopatch 200B amplifier (Molecular Devices). […] Capacitance was monitored throughout the experimental recordings. […]

[1] = system: formalin-evoked trigeminal irritant pain; experiment: Trigeminal formalin irritant pain model, WT mice; assay type: in vivo, mouse; conditions: 10 mg/kg i.p.; for pain behavior, delayed (late neural) phase: 15 min before 4% formalin, 15–45 min
Protocol: Figure 7 16-8 and 16-19 effectively attenuate formalin-evoked trigeminal irritant pain. (A) Time-course of nocifensive behavior in WT mice following whisker-pad injection of 4% formalin. The mice were pre-injected (i.p., 10 mg/kg; 15 min before formalin) with GSK205, 16-8 or 16-19. Note effective reduction of nocifensive behavior in the late “neural” phase by compounds 16-8, 16-19, not by GSK205. (B) Cumulative response binned into 3 phases: acute phase (0–5 min), interphase (5–15 min), and late “neural” phase (15–45 min). […] (C) As in (A), but also including Trpv4^−/− mice. Compounds were applied i.p. 15 min before formalin challenge, at 10 mg/kg except established TRPA1 blocker, A967079 (25 mg/kg). Previously-established attenuated nocifensive behavior in early and late phase in Trpv4^−/− mice was recapped, which was reduced further by TRPA1 blocker, A967079. (D) As in (B), plus inclusion of Trpv4^−/− mice. Robust effects of TRPA1-blocker, A967079, were mimicked equi-potently by 16-8 and 16-19 for early phase, and by 16-8 for late phase, partially by 16-19 for late phase. (A,C) show averaged behavioral metrics per time-point, bars in (B,D) represent mean ± SEM; for (D) ^*P < 0.05; ^#P < 0.005, one-way ANOVA; for all panels n = 5–8 mice/group. Implementation of this model was conducted as described previously. Video-taped nocifensive behavior was assessed by investigators blinded to genotype and treatment.

[2] = Preliminary in-vivo cardiac, renal and hepatic toxicity; design: species or system mouse; conditions: 10 mg/kg i.p., vs vehicle; for heart rate (EKG): over 1 h at the 6 h time-point
Protocol: Mice were treated i.p. with compounds 16-8 and 16-19 (10 mg/kg). Hepatic and renal integrity were analyzed by alanine amino-transferase- and creatinine assays (Sigma), both relying on measurement of absorbance at λ = 570 nm in 96-well micro-titerplates. 8 technical replicates per animal were performed.
For heart rate assessment in mice treated with 16-8 and 16-19, animals were fitted with two electrodes, one to the ear, via clip, one to the rib-cage, using firm adhesive. Heart rate was monitored and analyzed using axoscope and clampfit 9.2 software (Molecular Devices)

CN(CCc1ccc(Nc2nc(-c3ccccc3)cs2)cc1)Cc1ccccc1 [16-8]
attenuation of TRPV4-mediated currents (TRPV4): significantly increased potency
diminishing of pain behavior, delayed phase [1]: > 50%
pain behavior, delayed (late neural) phase [1]: significant attenuation; also recorded: significant reduction
heart rate (EKG) [2]: no and did not detect differences and changes
serum alanine-amino-transferase (ALT) [2]: not significantly elevated
serum creatinin [2]: not significantly elevated

CCN(CCc1ccc(Nc2nc(-c3ccccc3)cs2)cc1)Cc1ccccc1 [16-19]
attenuation of TRPV4-mediated currents (TRPV4): significantly increased potency
pain behavior, delayed (late neural) phase [1]: robust effect; also recorded: significant reduction
heart rate (EKG) [2]: no and did not detect differences and changes
serum alanine-amino-transferase (ALT) [2]: not significantly elevated
serum creatinin [2]: not significantly elevated
